Laboratory results from ChEMBL document CHEMBL1201862, “PubChem BioAssay data set” (2004).
Values belong to the compound of their own block, whether it stands above or below them. Calls of active or inactive are those of the source.

Assays:
Protein skinhead-1 = molecular target: T1, Protein skinhead-1 (Caenorhabditis elegans, UniProt P34707); assay type: functional
T1 sequence (P34707 whole entry): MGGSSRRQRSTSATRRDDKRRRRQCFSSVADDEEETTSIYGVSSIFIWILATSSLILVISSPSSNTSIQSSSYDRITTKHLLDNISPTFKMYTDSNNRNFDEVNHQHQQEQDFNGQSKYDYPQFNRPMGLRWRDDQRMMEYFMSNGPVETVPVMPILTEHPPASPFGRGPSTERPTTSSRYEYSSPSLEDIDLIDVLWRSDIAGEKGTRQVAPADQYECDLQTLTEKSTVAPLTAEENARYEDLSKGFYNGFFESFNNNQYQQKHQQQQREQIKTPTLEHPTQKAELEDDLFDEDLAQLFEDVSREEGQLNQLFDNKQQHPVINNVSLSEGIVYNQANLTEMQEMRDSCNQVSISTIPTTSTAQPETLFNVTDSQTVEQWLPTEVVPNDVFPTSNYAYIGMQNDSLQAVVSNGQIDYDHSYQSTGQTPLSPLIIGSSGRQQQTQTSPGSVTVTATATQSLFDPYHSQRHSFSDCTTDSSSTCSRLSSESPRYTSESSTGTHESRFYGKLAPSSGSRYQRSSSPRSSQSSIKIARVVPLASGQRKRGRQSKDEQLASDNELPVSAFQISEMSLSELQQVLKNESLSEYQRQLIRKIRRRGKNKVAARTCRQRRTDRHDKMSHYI

[1] = molecular target: T2, Calpain-2 catalytic subunit (Sus scrofa, UniProt P43367); experiment: pig calpain II inhibitor potency, dose response, biochemical, fluorogenic peptide substrate (AID 1420); assay type: functional
T2 sequence (P43367 whole entry): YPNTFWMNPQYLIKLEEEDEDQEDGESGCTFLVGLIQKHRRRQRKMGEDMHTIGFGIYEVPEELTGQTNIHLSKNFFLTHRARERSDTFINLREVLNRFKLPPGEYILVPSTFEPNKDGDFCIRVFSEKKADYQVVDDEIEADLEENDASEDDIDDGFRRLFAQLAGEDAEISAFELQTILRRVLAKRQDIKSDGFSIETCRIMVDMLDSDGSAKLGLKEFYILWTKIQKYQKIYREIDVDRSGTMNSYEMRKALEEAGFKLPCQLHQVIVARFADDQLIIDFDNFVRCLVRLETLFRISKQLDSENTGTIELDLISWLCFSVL

[2] = molecular target: T3, Heat shock factor protein 1 (Mus musculus, UniProt P38532); experiment: HSF1 potentiators in luciferase reporter cells, confirmation, cell-based, NIH3T3, luminescence, dose retest (AID 435004); assay type: functional;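 further: stress induced by proteasome inhibitor MG132 added 30 min after compound; luciferase reporter driven by HSF1 response element in NIH3T3 cells; actives raise luminescence as potentiators of the MG132 stress response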
T3 sequence (P38532 whole entry): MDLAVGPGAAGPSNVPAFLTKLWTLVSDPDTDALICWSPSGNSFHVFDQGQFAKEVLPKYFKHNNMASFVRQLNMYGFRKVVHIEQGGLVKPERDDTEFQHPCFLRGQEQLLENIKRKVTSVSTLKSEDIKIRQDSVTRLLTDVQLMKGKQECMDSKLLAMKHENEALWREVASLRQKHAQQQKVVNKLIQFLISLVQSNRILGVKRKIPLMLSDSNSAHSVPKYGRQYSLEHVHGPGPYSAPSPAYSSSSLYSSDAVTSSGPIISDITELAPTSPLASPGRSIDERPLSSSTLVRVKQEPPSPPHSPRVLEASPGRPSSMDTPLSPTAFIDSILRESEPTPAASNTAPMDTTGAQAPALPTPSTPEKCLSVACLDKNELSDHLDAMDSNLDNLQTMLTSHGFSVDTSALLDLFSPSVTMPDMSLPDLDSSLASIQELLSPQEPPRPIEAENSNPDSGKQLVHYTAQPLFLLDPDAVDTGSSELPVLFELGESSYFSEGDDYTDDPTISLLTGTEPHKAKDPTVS

[3] = Luminescence Cell-Based Dose Response HTS to Identify Activators of Luciferase Translation or Activity in H4 […] Cells. [Related pubchem assays: 1829 (Project Summary), 1814 (Primary HTS)]; assay type: functional
[4] = molecular target: T4, Corticotropin-releasing factor receptor 2/Corticotropin-releasing factor-binding protein (Homo sapiens, UniProt P24387+Q13324); experiment: Dose Response confirmation of uHTS hits for small molecule antagonists of the CRF-binding protein and CRF-R2 receptor complex.; assay type: functional; details: read-out: IC50_Mean
T4 sequence (Q13324 whole entry): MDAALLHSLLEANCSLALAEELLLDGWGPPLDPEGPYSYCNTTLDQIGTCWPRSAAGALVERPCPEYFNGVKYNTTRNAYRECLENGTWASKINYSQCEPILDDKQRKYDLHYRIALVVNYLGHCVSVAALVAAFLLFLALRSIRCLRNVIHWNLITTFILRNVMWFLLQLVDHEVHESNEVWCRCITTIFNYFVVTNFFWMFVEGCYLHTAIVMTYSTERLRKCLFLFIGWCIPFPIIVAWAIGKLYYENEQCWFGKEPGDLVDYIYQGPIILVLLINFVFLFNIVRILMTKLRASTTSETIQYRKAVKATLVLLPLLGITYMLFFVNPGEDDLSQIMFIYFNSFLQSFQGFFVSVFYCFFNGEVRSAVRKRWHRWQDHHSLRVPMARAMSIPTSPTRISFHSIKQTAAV
T4 sequence (P24387 whole entry): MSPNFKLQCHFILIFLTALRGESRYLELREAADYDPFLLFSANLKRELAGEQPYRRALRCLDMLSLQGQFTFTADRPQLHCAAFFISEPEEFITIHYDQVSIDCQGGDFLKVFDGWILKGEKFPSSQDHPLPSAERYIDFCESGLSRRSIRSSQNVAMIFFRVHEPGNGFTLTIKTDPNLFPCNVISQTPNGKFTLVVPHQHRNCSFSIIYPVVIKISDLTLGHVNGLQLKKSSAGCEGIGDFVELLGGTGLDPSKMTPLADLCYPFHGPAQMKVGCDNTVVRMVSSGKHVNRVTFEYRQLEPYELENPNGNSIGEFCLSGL

[5] = molecular target: T4, Corticotropin-releasing factor receptor 2/Corticotropin-releasing factor-binding protein; experiment: activators of CRF receptor 2 with binding protein – uHTS hits, confirmation (AID 602473); assay type: functional; details: read-out: EC50_Mean
Fatty acid synthase [6] = molecular target: T5, Fatty acid synthase (Homo sapiens, UniProt P49327); experiment: FAS thioesterase domain inhibitors, dose response, biochemical, endpoint fluorescence intensity, uHTS hits (AID 624327); assay type: functional;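 further: fluorescence from hydrolysis of an O-methyl fluorescein acyl ester substrate by the enzyme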
Fatty acid synthase [7] = molecular target: T5, Fatty acid synthase; experiment: FAS thioesterase domain inhibitors, dose response, biochemical, kinetic fluorescence intensity (AID 624326); assay type: functional;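 further: rate of fluorescence rise from hydrolysis of a fluorogenic O-methyl fluorescein ester substrate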
Large T antigen = Large T antigen (Simian virus 40, UniProt P03070); assay type: functional, Betapolyomavirus macacae;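 further: Confirmatory-stage PubChem screen for compounds that inhibit SV40 T antigen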
[8] = molecular target: T6, Rac GTPase-activating protein 1 (Homo sapiens, UniProt Q9H0H5); experiment: MgcRacGAP GTPase-activating activity inhibitors, confirmation, biochemical, ADP Hunter fluorescence, primary and confirmatory (AID 624330); assay type: functional
T6 sequence (Q9H0H5 whole entry): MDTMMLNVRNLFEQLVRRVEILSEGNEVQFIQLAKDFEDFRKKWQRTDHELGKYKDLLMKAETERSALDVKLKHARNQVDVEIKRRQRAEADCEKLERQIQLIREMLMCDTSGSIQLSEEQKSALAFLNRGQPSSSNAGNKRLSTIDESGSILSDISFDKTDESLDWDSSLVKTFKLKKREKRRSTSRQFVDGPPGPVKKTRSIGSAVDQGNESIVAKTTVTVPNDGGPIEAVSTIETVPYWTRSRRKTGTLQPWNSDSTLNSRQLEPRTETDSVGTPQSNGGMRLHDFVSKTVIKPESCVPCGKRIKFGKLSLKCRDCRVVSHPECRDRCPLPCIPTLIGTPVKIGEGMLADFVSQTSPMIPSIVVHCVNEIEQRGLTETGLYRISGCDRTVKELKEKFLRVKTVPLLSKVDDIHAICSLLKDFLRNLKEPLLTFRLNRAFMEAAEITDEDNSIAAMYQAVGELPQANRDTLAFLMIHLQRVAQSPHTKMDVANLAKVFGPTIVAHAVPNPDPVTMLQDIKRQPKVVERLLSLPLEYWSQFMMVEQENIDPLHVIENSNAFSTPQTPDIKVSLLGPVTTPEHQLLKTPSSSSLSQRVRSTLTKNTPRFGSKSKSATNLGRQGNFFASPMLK

[9] = Luminescence Cell-Based Dose Retest to Confirm Inhibitors of Cancer Stem Cells. [Related pubchem assays (depositor defined):AID2717, AID2721]; assay type: functional; details: Homo sapiens
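Wherever AC50 is given: cells exposed to compound for roughly 70 hours or longer before luminescence read.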

T5 sequence (P49327 whole entry, the tested form may be a part): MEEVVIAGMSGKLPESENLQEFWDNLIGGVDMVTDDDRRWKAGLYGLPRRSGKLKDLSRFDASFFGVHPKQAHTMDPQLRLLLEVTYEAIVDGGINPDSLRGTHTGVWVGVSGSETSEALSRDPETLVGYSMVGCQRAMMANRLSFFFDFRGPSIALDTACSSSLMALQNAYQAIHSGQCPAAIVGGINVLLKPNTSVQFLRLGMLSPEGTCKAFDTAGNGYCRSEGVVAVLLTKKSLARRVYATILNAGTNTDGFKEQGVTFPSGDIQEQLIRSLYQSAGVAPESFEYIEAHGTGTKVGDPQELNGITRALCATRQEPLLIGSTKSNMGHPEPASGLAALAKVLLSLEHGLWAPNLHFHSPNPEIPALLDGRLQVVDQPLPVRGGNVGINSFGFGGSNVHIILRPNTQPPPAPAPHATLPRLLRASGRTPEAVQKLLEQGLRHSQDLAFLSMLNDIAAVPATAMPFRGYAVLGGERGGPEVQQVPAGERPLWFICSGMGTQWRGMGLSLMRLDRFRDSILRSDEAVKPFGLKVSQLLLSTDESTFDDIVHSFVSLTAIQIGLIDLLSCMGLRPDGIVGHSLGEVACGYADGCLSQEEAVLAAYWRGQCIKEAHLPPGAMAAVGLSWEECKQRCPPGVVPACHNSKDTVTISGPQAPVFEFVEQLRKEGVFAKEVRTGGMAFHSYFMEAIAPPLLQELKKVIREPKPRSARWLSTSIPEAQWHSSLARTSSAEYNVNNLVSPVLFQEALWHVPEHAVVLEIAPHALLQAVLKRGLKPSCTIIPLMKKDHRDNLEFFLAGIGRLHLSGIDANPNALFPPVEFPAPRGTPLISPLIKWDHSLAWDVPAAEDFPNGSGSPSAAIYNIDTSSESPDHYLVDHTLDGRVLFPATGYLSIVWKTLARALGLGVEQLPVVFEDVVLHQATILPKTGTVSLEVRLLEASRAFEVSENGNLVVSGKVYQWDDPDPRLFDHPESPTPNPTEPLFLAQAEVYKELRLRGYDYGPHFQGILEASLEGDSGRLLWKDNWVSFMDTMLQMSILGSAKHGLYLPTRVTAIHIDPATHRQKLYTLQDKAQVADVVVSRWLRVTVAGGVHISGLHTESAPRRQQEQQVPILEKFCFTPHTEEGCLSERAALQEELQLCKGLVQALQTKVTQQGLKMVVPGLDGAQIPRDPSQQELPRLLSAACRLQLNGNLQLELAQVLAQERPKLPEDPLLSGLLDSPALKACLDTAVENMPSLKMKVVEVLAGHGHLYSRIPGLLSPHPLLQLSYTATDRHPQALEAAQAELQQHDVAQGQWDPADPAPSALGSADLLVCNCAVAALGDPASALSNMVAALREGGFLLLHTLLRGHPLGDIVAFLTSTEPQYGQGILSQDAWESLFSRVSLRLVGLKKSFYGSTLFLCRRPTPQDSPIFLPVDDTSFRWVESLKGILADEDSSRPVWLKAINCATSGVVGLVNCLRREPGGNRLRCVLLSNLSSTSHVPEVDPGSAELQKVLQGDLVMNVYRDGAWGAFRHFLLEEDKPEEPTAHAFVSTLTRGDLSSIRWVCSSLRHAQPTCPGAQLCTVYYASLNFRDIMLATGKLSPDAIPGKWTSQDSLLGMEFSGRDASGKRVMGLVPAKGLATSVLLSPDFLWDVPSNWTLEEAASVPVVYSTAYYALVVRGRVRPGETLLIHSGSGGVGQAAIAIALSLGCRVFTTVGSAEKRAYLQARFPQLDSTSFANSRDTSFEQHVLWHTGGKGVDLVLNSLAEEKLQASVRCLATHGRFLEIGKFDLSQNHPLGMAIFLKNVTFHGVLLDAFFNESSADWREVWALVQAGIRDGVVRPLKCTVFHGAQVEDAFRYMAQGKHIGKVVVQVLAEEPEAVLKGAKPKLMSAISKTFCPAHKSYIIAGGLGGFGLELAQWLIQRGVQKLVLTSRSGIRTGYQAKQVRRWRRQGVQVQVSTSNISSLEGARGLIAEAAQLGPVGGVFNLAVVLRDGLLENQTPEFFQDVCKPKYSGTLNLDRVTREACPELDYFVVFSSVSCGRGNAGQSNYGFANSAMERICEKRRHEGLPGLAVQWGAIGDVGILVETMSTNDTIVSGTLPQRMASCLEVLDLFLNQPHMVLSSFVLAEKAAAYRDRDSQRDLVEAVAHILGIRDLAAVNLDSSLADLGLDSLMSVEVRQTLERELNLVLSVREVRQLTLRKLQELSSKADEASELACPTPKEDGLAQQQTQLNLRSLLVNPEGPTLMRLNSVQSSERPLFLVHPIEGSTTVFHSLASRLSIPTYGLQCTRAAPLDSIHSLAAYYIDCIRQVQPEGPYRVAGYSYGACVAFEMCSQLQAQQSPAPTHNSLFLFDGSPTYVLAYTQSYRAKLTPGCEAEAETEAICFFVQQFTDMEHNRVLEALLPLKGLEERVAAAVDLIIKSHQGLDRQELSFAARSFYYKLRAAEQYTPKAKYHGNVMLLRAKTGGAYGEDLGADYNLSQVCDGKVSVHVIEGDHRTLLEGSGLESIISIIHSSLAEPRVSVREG
Chain of Large T antigen (P03070 whole entry): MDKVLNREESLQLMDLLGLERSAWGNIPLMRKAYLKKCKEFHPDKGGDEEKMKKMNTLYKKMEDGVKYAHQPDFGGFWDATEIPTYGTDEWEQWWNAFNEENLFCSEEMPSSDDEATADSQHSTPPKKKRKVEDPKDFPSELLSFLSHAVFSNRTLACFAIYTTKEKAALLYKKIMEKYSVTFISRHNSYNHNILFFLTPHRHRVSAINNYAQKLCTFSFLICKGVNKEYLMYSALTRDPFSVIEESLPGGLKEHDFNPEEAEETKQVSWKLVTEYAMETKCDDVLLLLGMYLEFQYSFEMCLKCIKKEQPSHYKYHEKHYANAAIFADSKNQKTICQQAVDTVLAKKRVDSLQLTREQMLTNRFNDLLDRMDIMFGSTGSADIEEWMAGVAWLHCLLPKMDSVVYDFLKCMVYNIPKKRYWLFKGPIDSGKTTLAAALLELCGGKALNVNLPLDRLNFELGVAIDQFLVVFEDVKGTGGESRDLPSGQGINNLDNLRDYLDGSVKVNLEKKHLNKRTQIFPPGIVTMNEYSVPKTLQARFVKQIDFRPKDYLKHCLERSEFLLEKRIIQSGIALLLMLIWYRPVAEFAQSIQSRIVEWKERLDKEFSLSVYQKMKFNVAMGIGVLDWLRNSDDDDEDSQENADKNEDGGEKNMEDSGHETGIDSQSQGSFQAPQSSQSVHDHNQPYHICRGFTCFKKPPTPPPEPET

SMILES: CC(=O)Nc1cccc(OCC(=O)NS(=O)(=O)c2ccc(Cl)cc2)c1
IC50 (Protein skinhead-1): > 100 µM (inactive)

SMILES: C=CCN1C(=O)C2(C(C(=O)OCC)=C(N)Oc3ccccc32)C2=C1CCCC2=O (configuration not stated)
IC50 (Protein skinhead-1): > 100 µM (inactive)

SMILES: COC(=O)[C@H](CCSC)NC(=O)Nc1cccc(C)c1C
EC50 [2]: > 260 µM (inactive)

SMILES: O=C(COC(=O)c1cccnc1O)NCCc1ccc(Cl)cc1Cl
EC50 [3]: 0.367 µM (active)

SMILES: Cc1ccc(CSc2nnc(-c3ccco3)o2)cc1
IC50 (Protein skinhead-1): 22 µM (active)

SMILES: COCCNC(=S)N1CCc2cc(OC)c(OC)cc2C1COc1ccc(C(C)C)cc1 (configuration not stated)
IC50 [4]: > 47.1 µM (inactive) | EC50 [5]: > 53 µM (inactive)

SMILES: O=C(Cn1cc([N+](=O)[O-])ccc1=O)NCc1ccc(Cl)cc1Cl
IC50 (Fatty acid synthase [6]): 15.8 µM (active) | IC50 (Fatty acid synthase [7]): 20.4 µM (inactive)

SMILES: NC1=NC(=O)S/C1=C\c1ccc(O)cc1
IC50 (Large T antigen): 4.59 µM (active) | IC50 [4]: > 47.1 µM (inactive) | EC50 [5]: > 53 µM (inactive) | IC50 [8]: 15.7 µM (active)

SMILES: [O-][S+](Cc1cc(Sc2ccccc2)nc(-c2ccccc2)n1)c1ccccc1 (configuration not stated)
EC50 [2]: > 260 µM (inactive)

SMILES: COc1ccc(OC)c(NC(=O)COC(=O)CSc2ccc(Cl)cc2)c1
IC50 [1]: 15.5 µM (not active)

SMILES: O=C(Nc1ccc(Nc2ccccc2)cc1)c1cc([N+](=O)[O-])ccc1Cl
AC50 [9]: 9.07 µM (active) | EC50 [2]: 5.63 µM (active) | IC50 (Fatty acid synthase [6]): 11.1 µM (active) | IC50 (Fatty acid synthase [7]): 14 µM (active)

SMILES: O=C(c1ccc(F)cc1Cl)N(Cc1ccco1)C1CCS(=O)(=O)C1 (configuration not stated)
IC50 [4]: > 47.1 µM (inactive) | EC50 [5]: > 53 µM (inactive)

SMILES: O=C(Oc1ccc(Cl)c2cccnc12)C12CC3CC(CC(C3)C1)C2
IC50 [1]: 11.9 µM (not active)

SMILES: O=C(NC(=S)NCC1CCCO1)C(c1ccccc1)c1ccccc1 (configuration not stated)
IC50 [4]: > 47.1 µM (inactive) | EC50 [5]: > 53 µM (inactive)

Now from value to compound:

IC50 [1]: 7.01 µM (not active)
SMILES: O=C(CCC1CCCCC1)Nc1ccc(C(=O)c2ccncc2)cc1

EC50 [2]: 216 µM (active)
SMILES: COc1ccc(-c2[nH]ncc2CN2CCN(C3CCCCC3)C(=O)C2)cc1F

IC50 [4]: > 47.1 µM (inactive) | EC50 [5]: > 53 µM (inactive)
SMILES: COc1ccc(CN(C)Cc2nc3scc(-c4ccccc4)c3c(=O)[nH]2)cc1OC

IC50 (Fatty acid synthase [6]): 6.22 µM (active) | IC50 (Fatty acid synthase [7]): 5.48 µM (active)
SMILES: COc1ccc2cc3cc(C(=O)N4CCCC(C)C4)oc3nc2c1 (configuration not stated)

IC50 [1]: 7.88 µM (not active)
SMILES: Fc1ccc(Cn2nnnc2C(c2cccs2)N2CCCCCC2)cc1 (configuration not stated)

IC50 [1]: 43.1 µM (not active)
SMILES: O=C(c1cc2cc([N+](=O)[O-])ccc2s1)N1CCCCC1
